In patent publication US9428504B2, “7-hydroxy-spiropipiperidine indolinyl antagonists of P2Y1 receptor” (BRISTOL-MYERS SQUIBB COMPANY, priority 2012, dated 2016):

Tests used:
[1] = tested on: human platelet rich plasma (PRP); test: ADP induced platelet aggregation assay; details: Homo sapiens, Platelet, read-out: PA IC50 (μM) @ 10 μM ADP, platelet aggregation induced by 10 μM ADP, human PRP
[2] = target: cloned human P2Y1 receptors (Homo sapiens (Human), UniProt P47900); test: Binding Assay B: Scintillation Proximity Assay (SPA) for P2Y1 binding; details: SPA, [33P] 2MeS-ADP displacement; read-out: P2Y1 Ki (nM) using binding assay B
cloned human P2Y1 receptors, sequence (P47900 whole entry): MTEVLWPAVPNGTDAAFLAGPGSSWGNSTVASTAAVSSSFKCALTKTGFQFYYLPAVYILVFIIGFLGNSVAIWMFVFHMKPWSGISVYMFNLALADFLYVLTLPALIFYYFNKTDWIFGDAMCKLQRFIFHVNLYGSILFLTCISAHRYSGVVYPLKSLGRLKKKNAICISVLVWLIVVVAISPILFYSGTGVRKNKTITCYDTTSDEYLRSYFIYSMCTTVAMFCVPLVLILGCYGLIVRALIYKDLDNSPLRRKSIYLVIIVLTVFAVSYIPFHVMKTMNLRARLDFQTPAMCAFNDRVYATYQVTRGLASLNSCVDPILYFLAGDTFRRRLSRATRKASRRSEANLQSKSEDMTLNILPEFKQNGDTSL
In short: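 Membranes with ~15 fmol receptor (1.7 μg total protein) incubated with 0.3 nM [^33P]-labelled radioligand for 1 h at room temperature to completion. After centrifugation and removal of aqueous phase, bound radioactivity read by scintillation proximity; inhibition of radioligand binding measured.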

Compound	IC50 [1]	Ki [2]
CC(C)(C)CN1CCC2(CC1)CN(c1ccccc1NC(=O)Nc1nc3c(s1)CN(C(=O)C(F)(F)F)CC3)c1c(O)ccc(Cl)c12 [Example 72, 1-(2-(4-Chloro-7-hydroxy-1′-neopentylspiro[indoline-3,4′-piperidine]-1-yl)phenyl)-3-(5-(2,2,2-trifluoroacetyl)-4,5,6,7-tetrahydrothiazolo[5.4-c]pyridin-2-yl)urea]	0.2 µM	22.4 nM
CC(C)(C)CN1CCC2(CC1)CN(c1ccccc1NC(=O)Nc1csc(Cl)n1)c1c(O)ccc(-c3nc4ccc(Cl)cc4s3)c12 [Example 113, 1-(2-(4-(6-Chlorobenzo[d]thiazol-2-yl)-7-hydroxy-1′-neopentylspiro[indoline-3,4′-piperidin]-1-yl)phenyl)-3-(2-chlorothiazol-4-yl)urea]	0.4 µM	7.1 nM
CC(C)(C)CN1CCC2(CC1)CN(c1ccccc1NC(=O)Nc1ccc(C3CCCN3CC(C)(C)C)cc1)c1c(O)ccc(Cl)c12 (centres unmarked) [Example 58, 1-(2-(4-Chloro-7-hydroxy-1′-neopentylspiro[indoline-3,4′-piperidine]-1-yl)phenyl)-3-(4-(1-neopentylpyrrolidin-2-yl)phenyl)urea]	0.2 µM	12.4 nM
COc1ccc2nc(NC(=O)Nc3ccccc3N3CC4(CCN(CC(C)(C)C)CC4)c4c(F)ccc(O)c43)sc2n1 [Example 173, 1-(2-(4-Fluoro-7-hydroxy-1′-neopentylspiro[indoline-3,4′-piperidine]-1-yl)phenyl)-3-(5-methoxythiazolo[5,4-b]pyridin-2-yl)urea]	0.3 µM	3.8 nM
CC(C)CN1CCCC1c1ccc(NC(=O)Nc2ccccc2N2CC3(CCN(CC(C)(C)C)CC3)c3c(Cl)ccc(O)c32)cc1 (centres unmarked) [Example 57, 1-(2-(4-Chloro-7-hydroxy-1′-neopentylspiro[indoline-3,4′-piperidine]-1-yl)phenyl)-3-(4-(1-isobutylpyrrolidin-2-yl)phenyl)urea]	0.2 µM	10.4 nM
CC(C)CN1CCC2(CC1)CN(c1ccccc1NC(=O)Nc1ccc(OC(F)(F)F)cc1)c1c(O)ccc(C(F)(F)F)c12 [Example 106, 1-(2-(7-Hydroxy-1′-isobutyl-4-(trifluoromethyl)spiro [indoline-3,4′-piperidine]-1-yl)phenyl)-3-(4-(trifluoromethoxy)phenyl) urea]	0.1 µM	10.6 nM
CC(C)CN1CCC2(CC1)CN(c1ccccc1NC(=O)Nc1ccc(C(F)(F)F)cc1)c1c(O)ccc(Cl)c12 [Example 64, 1-(2-(4-Chloro-7-hydroxy-1′-isobutylspiro[indoline-3,4′-piperidine]-1-yl)phenyl)-3-(4-(trifluoromethyl)phenyl)urea]	1 µM	6.5 nM
CC(C)(C)CN1CCC2(CC1)CN(c1cc(F)ccc1NC(=O)Nc1nc3ccc(F)cc3s1)c1c(O)ccc(Cl)c12 [Example 67, 1-(2-(4-Chloro-7-hydroxy-1′-neoopentylspiro[indoline-3,4′-piperidine]-1-yl)-4-fluorophenyl)-3-(6-fluorobenzo[d]thiazol-2-yl)urea]	0.3 µM	22.2 nM
CC(C)(C)CN1CCC2(CC1)CN(c1ccccc1NC(=O)Nc1csc(Cl)n1)c1c(O)ccc(-c3nc4ccc(F)cc4s3)c12 [Example 114, 1-(2-Chlorothiazol-4-yl)-3-(2-(4-(6-fluorobenzo[d]thiazol-2-yl)-7-hydroxy-1′-neopentylspiro[indoline-3,4′-piperidin]-1-yl)phenyl)urea]	0.1 µM	5.6 nM
CC(C)(C)CN1CCC2(CC1)CN(c1ccccc1NC(=O)Nc1nc3ccc(F)cc3s1)c1c(O)cc(F)c(-c3ccc(C(F)(F)F)nc3)c12 [Example 161, 1-(2-(5-Fluoro-7-hydroxy-1′-neopentyl-4-(6-(trifluoromethyl)pyridin-3-yl)spiro[indoline-3,4′-piperidin]-1-yl)phenyl)-3-(6-fluorobenzo[d]thiazol-2-yl)urea]	0.2 µM	41.1 nM
